In ChEMBL document CHEMBL1141752, “Koniamborine, the first pyrano[3,2-b]indole alkaloid and other secondary metabolites from Boronella koniambiensis” (J Nat Prod, 2005):

Each compound was assayed on L1210 (assay: Cytotoxicity against mouse L1210 cells).
Format: functional, cell-based

Q: How did the IC50 turn out when `CC(C)=CCC/C(C)=C/COc1ccc2ccc(=O)oc2c1CC=C(C)C` was run?
A: 15.7 µM

Q: How did the IC50 turn out when `c1cc2c(cc1CC1COCC1Cc1ccc3c(c1)OCO3)OCO2` (stereo not drawn) was run?
A: 72.1 µM

Q: With `COc1ccc2c3occc(=O)c3n(C)c2c1` [KONIAMBORINE] as the compound, how does the IC50 read?
A: 38.2 µM
